Reference: patent US8961937B2 (Korea Atomic Energy Research Institute, priority 2012, dated 2015)
Entries after “also recorded” stand apart in the source; their conditions may differ.

Tests used:
Aβ40 aggregates [1] = molecular target: T1, Aβ40 aggregates (Homo sapiens, UniProt P05067); assay: In vitro fluorescence measurement before and after mixing with agglomerated Aβ40 peptide; format: binding; conditions: for λem: emission wavelength; for λem / λex: 10 μM in PBS; for λex: excitation wavelength; for Fold Increase (FAβ/F0): fluorescence emission intensity at λem, 10 μM compound and 10 μM Aβ40 aggregates
T1 construct: agglomerated Aβ40 peptide (10 μM, 35° C., agglomerated in PBS buffer for 3 days.)

Aβ40 aggregates [2] = molecular target: T1, Aβ40 aggregates; assay: Apparent binding constant (Kd) by fluorescence titration with aggregated Aβ40 peptide; conditions: 10 μM aggregated Aβ40 peptide, PBS, N = 3; read-out: Kd (mean ± SD)
Experimental: Apparent binding constants (Kd) of the nine compounds were measured by using 10 μM aggregated Aβ40 peptide. Fluorescence intensity of respective probes of […], 0.5, 1, […], 5, and 10 μM dissolved in PBS and fluorescence intensity of a mixture with aggregates Aβ peptide were measured. […] Theoretically, a preferable fluorescence probe for Aβ aggregates should have high fluorescence reactivity and binding affinity.

[3] = tested on: Aβ aggregates of brain tissues of an AD mouse; assay: Fluorescence staining of brain sections of transgenic AD mouse (APP/PS1); conditions: for staining of Aβ aggregates in brain section of transgenic AD mouse: 15-month aged APP/PS1 mouse brain section; for staining of brain tissue of control group mouse: control group mouse brain section
Experimental: In order to evaluate whether 2-styrylpyridazine-3(2H)-one-based compound 14 can stain beta amyloid aggregates of brain tissues of an AD mouse, compound 14 was tested in a brain section of an 15-month aged transgenic AD mouse (APP/PS 1) model.

[4] = molecular target: T2, intracellular Aβ aggregates of a SHSY5Y neuroblastoma cell (Homo sapiens, UniProt P05067); assay: Fluorescence imaging of intracellular Aβ aggregates in SHSY5Y cell extract; format: cell-based; conditions: for fluorescent staining of extract of Aβ42-added SHSY5Y cells: cell cultured with unlabelled Aβ42, sonicated with SDS, homogenate reacted with 10 μM probe for 10 minutes; for fluorescent staining of extract of SHSY5Y cells grown without Aβ: culture without Aβ42 (negative control tissue)
T2 construct: a cell having unlabelled Aβ42 added thereto was sonicated with SDS; host or cells: exogenous peptide added to the SHSY5Y neuroblastoma cell culture
Experimental: Fluorescence imaging of compound 14 was performed on intracellular Aβ aggregates of a SHSY5Y neuroblastoma cell. In order to measure intracellular uptake and aggregation of Aβ, 1 μM of Aβ42 (FITC-Aβ42) labelled with fluorescein isothiocyanate was added, and SHSY5Y cell was cultivated 3 days and imaged with fluorescence microscope. […] The conventional research reported that, after extracellular soluble Aβ is taken up, Aβ42 aggregates (>200 kDa) having a high molecular weight is formed. In order to determine whether the compound 14 is used as a fluorescence probe component for detecting intracellular Aβ aggregates, a cell having unlabelled Aβ42 added thereto was sonicated with SDS, and the homogenate was reacted with 10 μM of compound 14 for 10 minutes.

T1 sequence (P05067 672-711 limits assumed): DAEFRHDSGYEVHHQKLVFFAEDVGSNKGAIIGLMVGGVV
T2 sequence (P05067 672-713 limits assumed): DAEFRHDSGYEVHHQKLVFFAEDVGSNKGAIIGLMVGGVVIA

λem (Aβ40 aggregates [1])	λex (Aβ40 aggregates [1])	Fold Increase (FAβ/F0) (Aβ40 aggregates [1])	Kd (Aβ40 aggregates [2])	fluorescent staining of extract of SHSY5Y cells grown without Aβ [4]	Structure (SMILES)	staining of Aβ aggregates in brain section of transgenic AD mouse [3]	staining of brain tissue of control group mouse [3]	fluorescent staining of extract of Aβ42-added SHSY5Y cells [4]
554 nm	400 nm	11.52	5.03 ± 3.48 µM		COc1ccc(/C=C/n2ncc(Cl)c(Cl)c2=O)c(OC)c1 [Compound 20, (E)-4,5-dichloro-2-(2,4-dimethoxystyryl)pyridazine-3(2H)-one]			
514 nm	380 nm	1.92			O=c1c(Cl)c(Cl)cnn1/C=C/c1ccc(-c2ccccc2)cc1 [Compound 12, (E)-2-(2-(biphenyl-4-yl)vinyl)-4,5-dichloropyridazine-3(2H)-one]			
636 nm	430 nm	40.84	1.84 µM	did not have fluorescent staining	CN(C)c1ccc(/C=C/n2ncc(Cl)c(Cl)c2=O)cc1 [Compound 14]	clearly stained	not stained	Fluorescence precipitate was obtained; also recorded: clearly stained
496 nm	350 nm	4.72			O=c1c(Cl)c(Cl)cnn1/C=C/c1ccccc1 [Compound 1, trans-4,5-dichloro-2-styrylpyridazine-3(2H)-one]			
498 nm	380 nm	5.26			O=c1c(Cl)c(Cl)cnn1/C=C/c1ccc(I)cc1 [Compound 5, (E)-4,5-dichloro-2-(4-Iodostyryl)pyridazine-3(2H)-one]			
495 nm	380 nm	3.03			O=c1c(Cl)c(Cl)cnn1/C=C/c1ccc(Cl)cc1 [Compound 3, (E)-4,5-dichloro-2-(4-chlorostyryl)pyridazine-3(2H)-one]			
560 nm	430 nm	11.72	17.5 ± 2.49 µM		COc1cc(OC)c(/C=C/n2ncc(Cl)c(Cl)c2=O)c(OC)c1 [Compound 27, (E)-4,5-dichloro-2-(2,4,6-trimethoxystyryl)pyridazine-3(2H)-one]			
492 nm	380 nm	8.24			COc1ccccc1/C=C/n1ncc(Cl)c(Cl)c1=O [Compound 16, (E)-4,5-dichloro-2-(2-methoxystyryl)pyridazine-3(2H)-one]			
515 nm	390 nm	2.24			O=c1c(Cl)c(Cl)cnn1/C=C/c1ccc([N+](=O)[O-])cc1 [Compound 10, (E)-4,5-dichloro-2-(4-nitrostyryl)pyridazine-3(2H)-one]			
536 nm	390 nm	26.81	4.24 ± 0.98 µM		COc1ccc(/C=C/n2ncc(Cl)c(Cl)c2=O)c(OC)c1OC [Compound 25, (E)-4,5-dichloro-2-(2,3,4-trimethoxystyryl)pyridazine-3(2H)-one]			
488 nm	370 nm	2.07			COC(=O)c1ccc(/C=C/n2ncc(Cl)c(Cl)c2=O)cc1 [Compound 7, (E)-4,5-dichloro-2-(4-methoxycarbonylstyryl)pyridazine-3(2H)-one]			
500 nm	370 nm	4.12			O=c1c(Cl)c(Cl)cnn1/C=C/c1ccccc1[N+](=O)[O-] [Compound 8, (E)-4,5-dichloro-2-(2-nitrostyryl)pyridazine-3(2H)-one]			
512 nm	370 nm	3.42			COc1ccc(OC)c(/C=C/n2ncc(Cl)c(Cl)c2=O)c1 [Compound 21, (E)-4,5-dichloro-2-(2,5-dimethoxystyryl)pyridazine-3(2H)-one]			
492 nm	350 nm	5.37			COc1cc(/C=C/n2ncc(Cl)c(Cl)c2=O)cc(OC)c1 [Compound 24, (E)-4,5-dichloro-2-(3,5-dimethoxystyryl)pyridazine-3(2H)-one]			
492 nm	350 nm	11.13	3.48 ± 1.14 µM		COc1cccc(/C=C/n2ncc(Cl)c(Cl)c2=O)c1 [Compound 17, (E)-4,5-dichloro-2-(3-methoxystyryl)pyridazine-3(2H)-one]			
504 nm	350 nm	15.35	8.52 ± 2.48 µM		COc1cccc(/C=C/n2ncc(Cl)c(Cl)c2=O)c1OC [Compound 19, (E)-4,5-dichloro-2-(2,3-dimethoxystyryl)pyridazine-3(2H)-one]			
495 nm	370 nm	2.12			O=c1c(Cl)c(Cl)cnn1/C=C/c1ccc(Br)cc1 [Compound 4, (E)-2-(4-bromostyryl)-4,5-dichloropyridazine-3(2H)-one]			
492 nm	350 nm	5.93			O=c1c(Cl)c(Cl)cnn1/C=C/c1ccc(F)cc1 [Compound 2, (E)-4,5-dichloro-2-(4-fluorostyryl)pyridazine-3(2H)-one]			
542 nm	350 nm	3.95			COc1cc(OC)c(OC)cc1/C=C/n1ncc(Cl)c(Cl)c1=O [Compound 26, (E)-4,5-dichloro-2-(2,4,5-trimethoxystyryl)pyridazine-3(2H)-one]			
510 nm	380 nm	2.04			O=c1c(Cl)c(Cl)cnn1/C=C/c1ccc(/C=C/c2ccccc2)cc1 [Compound 13, 4,5-dichloro-2-((E)-4-(E)-styrylstyryl)pyridazine-3(2H)-one]			
545 nm	350 nm	4.53			COc1cccc(OC)c1/C=C/n1ncc(Cl)c(Cl)c1=O [Compound 22, (E)-4,5-dichloro-2-(2,6-dimethoxystyryl)pyridazine-3(2H)-one]			
516 nm	350 nm	2.81			Cc1ccc(/C=C/n2ncc(Cl)c(Cl)c2=O)cc1 [Compound 11, (E)-4,5-dichloro-2-(4-methylstyryl)pyridazine-3(2H)-one]			
485 nm	390 nm	2.12			O=c1c(Cl)c(Cl)cnn1/C=C/c1cccc([N+](=O)[O-])c1 [Compound 9, (E)-4,5-dichloro-2-(3-nitrostyryl)pyridazine-3(2H)-one]			
598 nm	400 nm	12.15	2.95 ± 1.15 µM		Nc1ccc(/C=C/n2ncc(Cl)c(Cl)c2=O)cc1 [Compound 15, (E)-4,5-dichloro-2-(4-aminostyryl)pyridazine-3(2H)-one]			
				did not have fluorescent staining	Cc1ccc2c(c1)sc(-c1ccc(N(C)C)cc1)[n+]2C.[Cl-] [thio-flavine T, reference compound]	stained	not stained	labelled pattern was identical to a pattern observed by using thio-flavine T
532 nm	400 nm	19.81	2.57 ± 0.54 µM		COc1ccc(/C=C/n2ncc(Cl)c(Cl)c2=O)cc1 [Compound 18, (E)-4,5-dichloro-2-(4-methoxystyryl)pyridazine-3(2H)-one]			
580 nm	390 nm	26.12	4.14 ± 1.94 µM		COc1cc(/C=C/n2ncc(Cl)c(Cl)c2=O)cc(OC)c1OC [Compound 28]			
552 nm	350 nm	3.52			COc1ccc(/C=C/n2ncc(Cl)c(Cl)c2=O)cc1OC [Compound 23, (E)-4,5-dichloro-2-(3,4-dimethoxystyryl)pyridazine-3(2H)-one]			
486 nm	380 nm	2.94			N#Cc1ccc(/C=C/n2ncc(Cl)c(Cl)c2=O)cc1 [Compound 6, (E)-2-(4-cyanostyryl)-4,5-dichloropyridazine-3(2H)-one]			
